Biological target: T1, PI3Kδ (Homo sapiens, UniProt O00329)
T1 construct: made in house
Assay: TR-FRET enzymatic activity assay, PI3Kδ
Type: biochemical
Conditions: Table 2a; same assay

T1 sequence (O00329 whole entry): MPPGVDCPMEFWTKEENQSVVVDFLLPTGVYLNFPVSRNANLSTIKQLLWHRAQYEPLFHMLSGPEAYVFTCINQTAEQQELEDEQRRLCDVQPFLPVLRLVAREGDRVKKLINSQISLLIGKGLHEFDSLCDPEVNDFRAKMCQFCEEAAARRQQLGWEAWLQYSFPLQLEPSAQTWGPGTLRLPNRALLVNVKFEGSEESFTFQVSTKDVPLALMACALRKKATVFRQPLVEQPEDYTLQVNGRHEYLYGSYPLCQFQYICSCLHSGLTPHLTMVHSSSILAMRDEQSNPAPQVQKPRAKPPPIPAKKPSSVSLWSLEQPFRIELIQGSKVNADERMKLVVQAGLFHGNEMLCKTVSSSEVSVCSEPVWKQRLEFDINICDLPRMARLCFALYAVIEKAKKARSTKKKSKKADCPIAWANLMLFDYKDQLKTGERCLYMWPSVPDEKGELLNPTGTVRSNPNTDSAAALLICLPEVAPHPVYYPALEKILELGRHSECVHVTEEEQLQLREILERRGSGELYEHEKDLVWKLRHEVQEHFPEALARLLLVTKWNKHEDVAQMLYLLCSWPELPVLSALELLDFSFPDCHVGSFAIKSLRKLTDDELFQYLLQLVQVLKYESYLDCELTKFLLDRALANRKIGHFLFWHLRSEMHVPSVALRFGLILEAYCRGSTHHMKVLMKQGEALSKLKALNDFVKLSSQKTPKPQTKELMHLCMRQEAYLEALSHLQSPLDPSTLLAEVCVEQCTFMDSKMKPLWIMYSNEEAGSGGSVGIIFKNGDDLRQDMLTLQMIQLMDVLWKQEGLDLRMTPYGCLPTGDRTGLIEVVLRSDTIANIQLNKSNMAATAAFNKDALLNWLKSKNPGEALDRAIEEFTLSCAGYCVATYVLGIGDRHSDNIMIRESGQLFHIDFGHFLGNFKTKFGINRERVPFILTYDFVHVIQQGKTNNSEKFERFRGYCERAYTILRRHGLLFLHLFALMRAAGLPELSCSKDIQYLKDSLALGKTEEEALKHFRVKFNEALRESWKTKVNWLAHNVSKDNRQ
T1 sequence (P27986 whole entry partner): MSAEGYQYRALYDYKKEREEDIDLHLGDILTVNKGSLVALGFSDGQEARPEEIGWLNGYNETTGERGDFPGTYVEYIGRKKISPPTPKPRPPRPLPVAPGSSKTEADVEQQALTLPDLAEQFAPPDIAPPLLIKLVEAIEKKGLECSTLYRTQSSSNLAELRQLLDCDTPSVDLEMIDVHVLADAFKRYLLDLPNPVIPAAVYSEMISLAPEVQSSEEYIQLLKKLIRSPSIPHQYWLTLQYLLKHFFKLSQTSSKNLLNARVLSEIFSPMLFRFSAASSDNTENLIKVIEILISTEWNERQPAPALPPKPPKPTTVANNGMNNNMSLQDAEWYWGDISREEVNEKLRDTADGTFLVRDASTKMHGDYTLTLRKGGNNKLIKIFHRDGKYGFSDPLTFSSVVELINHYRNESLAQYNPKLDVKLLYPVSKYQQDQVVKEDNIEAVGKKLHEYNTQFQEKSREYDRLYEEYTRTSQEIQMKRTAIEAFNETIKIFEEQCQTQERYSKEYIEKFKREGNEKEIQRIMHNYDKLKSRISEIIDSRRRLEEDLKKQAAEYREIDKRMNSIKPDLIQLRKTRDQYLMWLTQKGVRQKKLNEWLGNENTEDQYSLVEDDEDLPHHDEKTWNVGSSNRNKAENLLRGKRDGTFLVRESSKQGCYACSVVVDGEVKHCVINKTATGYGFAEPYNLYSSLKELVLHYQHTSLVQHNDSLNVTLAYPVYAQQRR

Row | Structure (SMILES) | IC50 [µM]
1 | C[C@H](Nc1nc(N)nc(C(F)F)c1C#N)c1nc2c(F)cc(F)cc2c(=O)n1-c1cc[nH]n1 [Compound 187, (S)-2-amino-4-((1-(6,8-difluoro-4-oxo-3-(1H-pyrazol-3-yl)-3,4-dihydroquinazolin-2-yl)ethyl)amino)-6-(difluoromethyl)pyrimidine-5-carbonitrile] | 0.006
2 | C[C@H](Nc1nc(N)nc(C(F)F)c1Cl)c1nc2cc(F)cc(F)c2c(=O)n1-c1cc[nH]n1 [Compound 233, (S)-2-(1-((2-amino-5-chloro-6-(difluoromethyl)pyrimidin-4-yl)amino)ethyl)-5,7-difluoro-3-(1H-pyrazol-3-yl)quinazolin-4(3H)-one] | 10
3 | C[C@H](Nc1nc(N)nc(C(F)F)c1Cl)c1nc2c(F)c(F)ccc2c(=O)n1-c1cc[nH]n1 [Compound 234, (S)-2-(1-((2-amino-5-chloro-6-(difluoromethyl)pyrimidin-4-yl)amino)ethyl)-7,8-difluoro-3-(1H-pyrazol-3-yl)quinazolin-4(3H)-one] | 7.6

Biological target: T2, PI3Kγ (Homo sapiens, UniProt P48736)
T2 construct: made in house
T2 sequence (P48736 whole entry): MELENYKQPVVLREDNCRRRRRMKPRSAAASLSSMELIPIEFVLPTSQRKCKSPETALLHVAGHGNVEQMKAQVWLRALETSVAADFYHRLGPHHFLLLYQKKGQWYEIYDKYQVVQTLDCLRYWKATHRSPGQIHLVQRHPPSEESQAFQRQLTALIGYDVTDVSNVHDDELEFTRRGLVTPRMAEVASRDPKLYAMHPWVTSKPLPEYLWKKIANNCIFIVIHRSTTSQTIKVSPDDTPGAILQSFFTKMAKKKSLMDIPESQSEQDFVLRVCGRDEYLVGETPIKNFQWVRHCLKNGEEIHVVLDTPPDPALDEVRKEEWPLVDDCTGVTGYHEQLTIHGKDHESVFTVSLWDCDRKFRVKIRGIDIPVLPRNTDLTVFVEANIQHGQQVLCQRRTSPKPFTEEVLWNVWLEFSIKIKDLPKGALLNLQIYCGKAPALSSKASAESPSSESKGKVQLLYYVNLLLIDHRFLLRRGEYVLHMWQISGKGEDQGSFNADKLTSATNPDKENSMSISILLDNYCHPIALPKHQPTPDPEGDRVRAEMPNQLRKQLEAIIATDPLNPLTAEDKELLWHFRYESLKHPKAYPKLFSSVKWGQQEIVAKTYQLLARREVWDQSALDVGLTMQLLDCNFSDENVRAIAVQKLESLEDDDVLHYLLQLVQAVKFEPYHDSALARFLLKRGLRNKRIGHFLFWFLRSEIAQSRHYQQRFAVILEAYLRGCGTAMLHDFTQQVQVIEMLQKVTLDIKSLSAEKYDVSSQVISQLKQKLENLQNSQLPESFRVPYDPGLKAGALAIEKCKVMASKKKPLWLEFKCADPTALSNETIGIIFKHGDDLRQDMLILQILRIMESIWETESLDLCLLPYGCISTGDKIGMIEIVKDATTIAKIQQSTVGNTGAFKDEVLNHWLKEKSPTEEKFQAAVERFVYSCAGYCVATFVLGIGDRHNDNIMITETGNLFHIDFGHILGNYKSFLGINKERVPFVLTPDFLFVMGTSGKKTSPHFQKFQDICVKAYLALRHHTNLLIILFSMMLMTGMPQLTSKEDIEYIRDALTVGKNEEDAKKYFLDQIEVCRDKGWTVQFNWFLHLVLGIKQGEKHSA
Assay: TR-FRET enzymatic activity assay, PI3Kγ
Type: biochemical
Conditions: not given
Experimental: The compounds of formula (I) were characterized for their enzymatic activity against the PI3K isoforms. The activities were measured using a time-resolved fluorescence resonance energy transfer (TR-FRET) assay.

Row | Structure (SMILES) | IC50 [µM]
4 | C[C@@H](Nc1nc(N)nc(N)c1Cl)c1nc2c(Cl)cc(F)cc2c(=O)n1-c1cc[nH]n1 [Compound 174, (R)-8-chloro-2-(1-((2,6-diamino-5-chloropyrimidin-4-yl)amino)ethyl)-6-fluoro-3-(1H-pyrazol-3-yl)quinazolin-4(3H)-one] | > 10
5 | C[C@H](Nc1nc(N)nc(N)c1Cl)c1nc2cccc(F)c2c(=O)n1-c1cc[nH]n1 [Compound 151, (S)-2-(1-((2,6-diamino-5-chloropyrimidin-4-yl)amino)ethyl)-5-fluoro-3-(1H-pyrazol-3-yl)quinazolin-4(3H)-one] | > 10
6 | C[C@H](Nc1nc(N)nc(N)c1Cl)c1nc2c(Cl)cc(F)cc2c(=O)n1-c1cc[nH]n1 [Compound 123, (S)-8-chloro-2-(1-((2,6-diamino-5-chloropyrimidin-4-yl)amino)ethyl)-6-fluoro-3-(1H-pyrazol-3-yl)quinazolin-4(3h)-one] | > 10
7 | C[C@H](Nc1nc(N)nc(N)c1Cl)c1nc2ccc(F)cc2c(=O)n1-c1cc[nH]n1 [Compound 111, (S)-2-(1-((2,6-diamino-5-chloropyrimidin-4-yl)amino)ethyl)-6-fluoro-3-(1H-pyrazol-3-yl)quinazolin-4(3h)-one] | > 10
8 | C[C@H](Nc1cc(N)nc(N)n1)c1nc2cccc(Cl)c2c(=O)n1-c1cc[nH]n1 [Compound 163, (S)-5-chloro-2-(1-((2,6-diaminopyrimidin-4-yl)amino)ethyl)-3-(1H-pyrazol-3-yl)quinazolin-4(3H)-one] | > 10
9 | C[C@H](Nc1nc(N)nc(N)c1Cl)c1nc2c(F)cccc2c(=O)n1-c1cc[nH]n1 [Compound 153, (S)-2-(1-((2,6-diamino-5-chloropyrimidin-4-yl)amino)ethyl)-8-fluoro-3-(1H-pyrazol-3-yl)quinazolin-4(3H)-one] | > 10

Same assay, conditions: Table 2; TR-FRET, 2x Km ATP, 30 minutes at 25° C.; read-out: PI3Kγ IC50

Row | Structure (SMILES) | IC50 [µM]
10 | N#Cc1c(N)nc(N)nc1N[C@H](c1nc2cccc(Cl)c2c(=O)n1-c1cc[nH]n1)C1CC1 [Compound 18, (S)-2,4-diamino-6-(((5-chloro-4-oxo-3-(1H-pyrazol-3-yl)-3,4-dihydroquinazolin-2-yl)(cyclopropyl)methyl)amino)pyrimidine-5-carbonitrile] | 0.19
11 | Cc1nc(N)nc(N[C@H](c2nc3cccc(Cl)c3c(=O)n2-c2cc[nH]n2)C2CC2)c1C#N [Compound 28, (S)-2-amino-4-(((5-chloro-4-oxo-3-(1H-pyrazol-3-yl)-3,4-dihydroquinazolin-2-yl)(cyclopropyl)methyl)amino)-6-methylpyrimidine-5-carbonitrile] | 0.27
12 | Nc1nc(N)c(Cl)c(N[C@H](c2nc3cccc(Cl)c3c(=O)n2-c2cc[nH]n2)C2CC2)n1 [Compound 20, (S)-5-chloro-2-(cyclopropyl((2,6-diamino-5-chloropyrimidin-4-yl)amino)methyl)-3-(1H-pyrazol-3-yl)quinazolin-4(3H)-one] | 5.9
13 | C[C@H](Nc1nc(N)nc(N)c1Cl)c1nc2cccc(Cl)c2c(=O)n1-c1cc[nH]n1 [Compound 64, (S)-5-chloro-2-(1-((2,6-diamino-5-chloropyrimidin-4-yl)amino)ethyl)-3-(1H-pyrazol-3-yl)quinazolin-4(3H)-one] | 1.2
14 | C[C@H](Nc1nc(N)nc(N)c1C#N)c1nc2cccc(Cl)c2c(=O)n1-c1cc[nH]n1 [Compound 16, (S)-2,4-diamino-6-((1-(5-chloro-4-oxo-3-(1H-pyrazoyl)-3,4-dihydroquinazolin-2-yl)ethyl)amino)pyrimidine-5-carbonitrile] | 0.051
15 | N#Cc1c(Cl)nc(N)nc1N[C@H](c1nc2cccc(Cl)c2c(=O)n1-c1cc[nH]n1)C1CC1 [Compound 63, (S)-2-amino-4-chloro-6-(((5-chloro-4-oxo-3-(1H-pyrazol-3-yl)-3,4-dihydroquinazolin-2-yl)(cyclopropyl)methyl)amino)pyrimidine-5-carbonitrile] | 1.3
16 | N#Cc1c(N)nc(N)nc1N[C@H](c1nc2c(Cl)cc(F)cc2c(=O)n1-c1cc[nH]n1)C1CC1 [Compound 125, (S)-2,4-diamino-6-(((8-chloro-6-fluoro-4-oxo-3-(1H-pyrazol-3-yl)-3,4-dihydroquinazolin-2-yl)(cyclopropyl)methyl)amino)pyrimidine-5-carbonitrile] | 0.63
17 | C[C@H](Nc1ncnc(N)c1C#N)c1nc2cccc(Cl)c2c(=O)n1-c1cn[nH]c1 [Compound 2, (S)-4-amino-6-((1-(5-chloro-4-oxo-3-(1H-pyrazol-4-yl)-3,4-dihydroquinazolin-2-yl)ethyl)amino)pyrimidine-5-carbonitrile] | 0.99
18 | C[C@H](Nc1ncnc(N)c1C#N)c1nc2cccc(Cl)c2c(=O)n1-c1cc[nH]n1 [Compound 22, (S)-4-amino-6-((1-(5-chloro-4-oxo-3-(1H-pyrazol-3-yl)-3,4-dihydroquinazolin-2-yl)ethyl)amino)pyrimidine-5-carbonitrile] | 0.99

Same assay, conditions: Table 2a; same assay; read-out: PI3Kγ IC50

Row | Structure (SMILES) | IC50 [µM]
19 | C[C@H](Nc1nc(N)nc(C(F)F)c1C#N)c1nc2ccc(F)cc2c(=O)n1-c1cc[nH]n1 [Compound 193, (S)-2-amino-4-(difluoromethyl)-6-((1-(6-fluoro-4-oxo-3-(1H-pyrazol-3-yl)-3,4-dihydroquinazolin-2-yl)ethyl)amino)pyrimidine-5-carbonitrile] | 8
20 | C[C@H](Nc1nc(N)nc(C(F)F)c1C#N)c1nc2c(F)cc(F)cc2c(=O)n1-c1cc[nH]n1 [Compound 187, (S)-2-amino-4-((1-(6,8-difluoro-4-oxo-3-(1H-pyrazol-3-yl)-3,4-dihydroquinazolin-2-yl)ethyl)amino)-6-(difluoromethyl)pyrimidine-5-carbonitrile] | 2.3
21 | C[C@H](Nc1nc(N)nc(C(F)F)c1Cl)c1nc2cc(F)cc(F)c2c(=O)n1-c1cc[nH]n1 [Compound 233, (S)-2-(1-((2-amino-5-chloro-6-(difluoromethyl)pyrimidin-4-yl)amino)ethyl)-5,7-difluoro-3-(1H-pyrazol-3-yl)quinazolin-4(3H)-one] | > 10
22 | Nc1nc(N)c(Cl)c(N[C@@H](c2nc3cccc(Cl)c3c(=O)n2-c2cc[nH]n2)C2CC2)n1 [Compound 160, (R)-5-chloro-2-(cyclopropyl((2,6-diamino-5-chloropyrimidin-4-yl)amino)methyl)-3-(1H-pyrazol-3-yl)quinazolin-4(3H)-one] | > 10
23 | CC[C@H](Nc1nc(N)nc(C(F)F)c1C#N)c1nc2c(Cl)cc(F)cc2c(=O)n1-c1cc[nH]n1 [Compound 180, (S)-2-amino-4-((1-(8-chloro-6-fluoro-4-oxo-3-(1H-pyrazol-3-yl)-3,4-dihydroquinazolin-2-yl)propyl)amino)-6-(difluoromethyl)pyrimidine-5-carbonitrile] | 7.8
24 | C[C@H](Nc1nc(N)nc(C(F)F)c1C#N)c1nc2c(Cl)cc(F)cc2c(=O)n1-c1cc[nH]n1 [Compound 173, (S)-2-amino-4-((1-(8-chloro-6-fluoro-4-oxo-3-(1H-pyrazol-3-yl)-3,4-dihydroquinazolin-2-yl)ethyl)amino)-6-(difluoromethyl)pyrimidine-5-carbonitrile] | 1.3
25 | CC[C@H](Nc1nc(N)nc(N)c1Cl)c1nc2c(Cl)cc(F)cc2c(=O)n1-c1cc[nH]n1 [Compound 257, (S)-8-chloro-2-(1-((2,6-diamino-5-chloropyrimidin-4-yl)amino)propyl)-6-fluoro-3-(1H-pyrazol-3-yl)quinazolin-4(3H)-one] | > 10
26 | C[C@H](Nc1nc(N)nc(C(F)F)c1C#N)c1nc2c(F)cccc2c(=O)n1-c1cc[nH]n1 [Compound 186, (S)-2-amino-4-(difluoromethyl)-6-((1-(8-fluoro-4-oxo-3-(1H-pyrazol-3-yl)-3,4-dihydroquinazolin-2-yl)ethyl)amino)pyrimidine-5-carbonitrile] | 4.3
27 | N#Cc1c(N[C@H](c2nc3cccc(Cl)c3c(=O)n2-c2cc[nH]n2)C2CC2)nc(N)nc1C(F)F [Compound 171, (S)-2-amino-4-(((5-chloro-4-oxo-3-(1H-pyrazol-3-yl)-3,4-dihydroquinazolin-2-yl)(cyclopropyl)methyl)amino)-6-(difluoromethyl)pyrimidine-5-carbonitrile] | 1.1
28 | C[C@H](Nc1nc(N)nc(N)c1Cl)c1nc2c(F)cc(F)cc2c(=O)n1-c1cc[nH]n1 [Compound 161, (S)-2-(1-((2,6-diamino-5-chloropyrimidin-4-yl)amino)ethyl)-6,8-difluoro-3-(1H-pyrazol-3-yl)quinazolin-4(3H)-one] | 4.4
29 | C[C@H](Nc1nc(N)nc(C(F)F)c1C#N)c1nc2cccc(F)c2c(=O)n1-c1cc[nH]n1 [Compound 191, (S)-2-amino-4-(difluoromethyl)-6-((1-(5-fluoro-4-oxo-3-(1H-pyrazol-3-yl)-3,4-dihydroquinazolin-2-yl)ethyl)amino)pyrimidine-5-carbonitrile] | > 10
30 | C[C@H](Nc1nc(N)nc(C(F)(F)F)c1C#N)c1nc2cccc(Cl)c2c(=O)n1-c1cc[nH]n1 [Compound 168, (S)-2-amino-4-((1-(5-chloro-4-oxo-3-(1H-pyrazol-3-yl)-3,4-dihydroquinazolin-2-yl)ethyl)amino)-6-(trifluoromethyl)pyrimidine-5-carbonitrile] | > 10
31 | N#Cc1c(N[C@H](c2nc3c(Cl)cc(F)cc3c(=O)n2-c2cc[nH]n2)C2CC2)nc(N)nc1C(F)F [Compound 172, (S)-2-amino-4-(((8-chloro-6-fluoro-4-oxo-3-(1H-pyrazol-3-yl)-3,4-dihydroquinazolin-2-yl)(cyclopropyl)methyl)amino)-6-(difluoromethyl)pyrimidine-5-carbonitrile] | 3.5
32 | C[C@H](Nc1nc(N)nc(C(F)F)c1Cl)c1nc2c(F)c(F)ccc2c(=O)n1-c1cc[nH]n1 [Compound 234, (S)-2-(1-((2-amino-5-chloro-6-(difluoromethyl)pyrimidin-4-yl)amino)ethyl)-7,8-difluoro-3-(1H-pyrazol-3-yl)quinazolin-4(3H)-one] | > 10

Source: patent publication US10308639B2, “Phosphatidylinositol 3-kinase inhibitors” (Gilead Sciences, Inc., priority 2014, dated 2019)
